Reference: patent US20260240878A1, “PTP1B/TC-PTP DUAL INHIBITORS AND PROTEIN DEGRADERS” (Purdue Research Foundation, priority 2023, published 2026)
*1 amine or outer side, *2 acyl side, *3 side chain or, on linkers, in order; H or OH if unused. Where a SMILES comes first, the peptide text is derived from it. [ ]: non-standard residue; d: D form. The star is where a group is joined. NHCH2(1,3-C6H4)CH2CO = O=C(Cc1cccc(CN[*:1])c1)[*:2]; F2Pmp = N[C@@H](Cc1ccc(C(F)(F)P(=O)(O)O)cc1)C(=O)O; Phenylacetyl(4-OH,3-OMe) = COc1cc(CC(=O)*)ccc1O; Benzoyl(3-Br,4-Me) = Cc1ccc(C(=O)*)cc1Br; X1 = Cc1ncsc1-c1ccc([C@H](C)N*)cc1; Hyp = O=C(O)[C@@H]1C[C@@H](O)CN1; Tle = CC(C)(C)[C@H](N)C(=O)O

Key:
[1] = tested on: MC38 syngeneic tumor; experiment: MC38 syngeneic tumor study; assay type: in vivo, mouse
Procedure: Quantification was performed based on six representative images from six sections.
For MC38 syngeneic tumor study, 12 weeks C57BL6 female mice were injected subcutaneously with 10^6 MC38 cells for tumor growth. When tumors reached an average volume of 200 mm^3, mice were tumor size-matched and randomly assigned to different experimental groups for experiments. Mice were injected intraperitoneally with saline or 25 or 50 mg/kg compound 47 daily. Tumor sizes and animal weights were measured twice per week (FIGS. 5B-5C). Tumor volume (mm^3)=(length×width^2)/2. At the end of the experiments, mice were euthanized, and tumors were collected for analysis.

[2] = Pharmacokinetic study in mice (i.p., different formulas); assay type: in vivo, mouse; settings: PBS buffer compared to saline
Procedure: Plasma concentrations of compound 47 were measured by LCMS after i.p. injection with different formulas at the indicated time.
For the PK study, C57BL6 female mice (25-30 g body weight) were injected intraperitoneally with 25 or 50 mg/kg compound 47 dissolved in 0.4 ml saline. Blood samples were collected through the tail vein at indicated time points after injection. Isoflurane was used as an anesthetic. All blood samples were centrifuged at 1,500 g for 5 minutes, and plasma was separated and stored at −80° C. until analysis by a validated method based on reversed-phase liquid chromatography coupled to mass-spectrometric detection (LC/MS) using a reported procedure (Journal of Clinical Investigation, 2018, 128, 816-825), which is hereby specifically incorporated by reference for its teachings regarding same (FIG. 5A).
Saline was replaced by PBS buffer in the treatment of compound 47 in mice to improve PK properties (FIG. 10). Both Cmax and area under the curve (AUC) were increased compared to the above method with saline.

[3] = tested on: CD8+ naïve T-cells; experiment: Degradation, STAT phosphorylation and activation in CD8+ naive T-cells (flow cytometry); assay type: cell-based, mouse
Procedure: In (A) purified CD8^+ naïve T-cells from control (Ptpn2^fl/fl) and Lck-Cre; Ptpn2^fl/fl mice (n=3/genotype/condition) were incubated for 48 hours with IL-7 in the presence or absence of compound 47 as indicated, and TC-PTP and PTP1B protein levels were monitored by flow cytometry. (B) show vehicle-treated control, TCPTP-deficient Lck-Cre; Ptpn2^fl/fl and compound 47-treated control naïve CD8^+ T-cells were stimulated with plate-bound α-CD3/α-CD28 for 48 hours to promote T-cell activation. Basal STAT-1 (p(Y701) STAT-1) and STAT-5 (p(Y694) STAT-5) phosphorylation were assessed by flow cytometry. (C) cell size (FSC-A) and the T-cell activation markers CD25, CD69 and CD44 (MFI: mean fluorescence intensities) were measured by flow cytometry. (dot (●) represents Ptpn2^fl/fl+Vehicle, square (▪) represents Lck-Cre; Ptpn2^fl/fl+Vehicle, triangle (▴) represents Ptpn2^fl/fl+ compound 47).
Beyond attenuating JAK/STAT signaling in tumor cells, PTP1B and TC-PTP also have fundamental roles in T-cells, and the deletion of either TC-PTP or PTP1B in T-cells can markedly enhance anti-tumor immunity. TC-PTP attenuates T-cell receptor (TCR) signaling by dephosphorylating and inactivating the Src family kinase LCK. TC-PTP attenuates JAK/STAT1/5 signaling in response to cytokines such as IFNs and IL-2, which are required for the activation, clonal expansion, and differentiation of T-cells. The deletion of TC-PTP in T-cells enhances immunosurveillance and inhibits the growth of syngeneic tumors in mice and the anti-tumor efficacy of adoptively transferred T-cells. PTP1B also negatively regulates IL-2-induced JAK/STAT5 signaling in T-cells, and its deletion or inhibition in vivo can enhance the anti-tumor activity of T-cells. Accordingly, the impact of targeting PTP1B and TC-PTP with compound 47 on JAK/STAT signaling and the activation of T-cells after crosslinking the TCR was assessed. The effects of compound 47 were compared with the genetic deletion of TC-PTP (encoded by Ptpn2) in T-cells (Lck-Cre; Ptpn2^fl/fl). First, the impact of compound 47 on TC-PTP and PTP1B protein levels was assessed by flow cytometry using validated antibodies. […] The degradation of TC-PTP and PTP1B was accompanied by a more than 3-fold increase in STAT1 Y701 phosphorylation and a 2-fold increase in STAT5 Y694 phosphorylation detected after crosslinking the TCR with α-CD3/α-CD28 to activate T-cells (FIG. 9B). Importantly, the promotion of pSTAT1/Y701 and pSTAT5/Y694 by compound 47 treatment exceeded that achieved by the genetic deletion of TC-PTP, consistent with compound 47 targeting both TC-PTP and PTP1B to enhance signaling. […] CD25 (IL-2 receptor a), and CD69 (FIG. 9C). […] This was not necessarily a surprise since TC-PTP, but not PTP1B, attenuates TCR signaling in naive CD8^+ T-cells.

[4] = after crosslinking the TCR with α-CD3/α-CD28

COc1cc(CC(=O)N[C@@H](Cc2ccccc2)C(=O)N[C@@H](Cc2ccc(C(F)(F)P(=O)(O)O)cc2)C(=O)N[C@@H](CCCCNC(=O)c2ccc(C)c(Br)c2)C(=O)NCc2cccc(CC(=O)N[C@H](C(=O)N3C[C@H](O)C[C@H]3C(=O)N[C@@H](C)c3ccc(-c4scnc4C)cc3)C(C)(C)C)c2)ccc1O [Compound 47, ((4-((S)-3-(((S)-6-(3-bromo-4-methylbenzamido)-1-((3-(2-(((S)-1-((2S,4R)-4-hydroxy-2-(((S)-1-(4-(4-methylthiazol-5-yl)phenyl)ethyl)carbamoyl)pyrrolidin-1-yl)-3,3-dimethyl-1-oxobutan-2-yl)amino)-2-oxoethyl)benzyl)amino)-1-oxohexan-2-yl)amino)-2-((S)-2-(2-(4-hydroxy-3-methoxyphenyl)acetamido)-3-phenylpropanamido)-3-oxopropyl)phenyl)difluoromethyl)phosphonic Acid] ({Phenylacetyl(4-OH,3-OMe)}-F[F2Pmp]K(Benzoyl(3-Br,4-Me))[NHCH2(1,3-C6H4)CH2CO][Tle][Hyp]-X1)
CD8 T cell infiltration of tumor (CD8α IHC) ([1]; 25 mg/kg): high level of CD8-T cell infiltration
MC38 tumor growth ([1]; 25 and 50 mg/kg i.p. daily, ten days): significantly inhibits MC38 tumor growth
PTP1B and TC-PTP degradation in vivo (MC38 tumor) ([1]; 25 or 50 mg/kg): induces PTP1B and TC-PTP degradation in vivo
Cmax [2]: increased
area under the curve (AUC) [2]: increased
TCR-induced activation of T-cells (cell size, CD44, CD25, CD69) [3]: enhanced the TCR-induced activation of T-cells
TC-PTP and PTP1B protein levels in T-cells ([3]; 48 hr treatment): effectively degraded
increase in STAT1 Y701 phosphorylation [3, 4]: more than 3 fold
increase in STAT5 Y694 phosphorylation [3, 4]: 2 fold
